Measurements as given in patent US6365407B1, “Culture medium composition useful for induction and proliferation of Taxus calli” (Council of Scientific & Industrial Research, priority 2001, dated 2002).

How the values were obtained:
Assay type in all cases: cell-based, Himalayan Yew
[1] = test system: callus tissues of Taxus baccata ssp. Wallichiana Zucc. Pilg.; test: Growth of callus tissues on Picloram supplemented media; details: compared to media supplemented with other auxins reported earlier in the literature
Source text: (§1) Thus the combination of the modified medium of the present invention with Picloram, Sucrose, Phytagel and Antioxidants is novel and conducive for good callus growth and Taxane production in vitro. The details are described herewith. The present invention also provides a process for the enhanced production of taxol and/or taxane class of molecules in the said callus cultures which comprises inoculating any plant part of the Himalayan yew in the said culture medium for a period of 30 to 60 days in dark and at a temperature ranging between 24-26° C., to obtain the undifferentiated mass of callus culture, extracting the product by conventional solvent extraction methods and analyzing the compounds by HPLC. The stems, needles and seeds (for excision of embryos and endosperms) derived from mature trees of Taxus baccata ssp. Wallichiana Zucc. Pilg., Himalayan Yew were first washed in soap water for five min. followed by 95% ethanol treatment for one min. The alcohol was washed off with four washes of double distilled water. Surface sterilization was done with 0.1% HgCl2 for 10 min. under vacuum followed by six washes with sterile distilled water. Following this, the explants were inoculated aseptically in pre-sterilized plastic dishes (55-mm diameter) containing the medium of the present invention. The medium was prepared by mixing constituents mentioned in Tables 1 and 2. […]

[2] = test system: callus lines of Taxus baccata ssp. Wallichiana Zucc. Pilg.; test: Taxane/taxol production in callus cultures, HPLC analysis
Source text: Thus the combination of the modified medium of the present invention with Picloram, Sucrose, Phytagel and Antioxidants is novel and conducive for good callus growth and Taxane production in vitro. The details are described herewith. The present invention also provides a process for the enhanced production of taxol and/or taxane class of molecules in the said callus cultures which comprises inoculating any plant part of the Himalayan yew in the said culture medium for a period of 30 to 60 days in dark and at a temperature ranging between 24-26° C., to obtain the undifferentiated mass of callus culture, extracting the product by conventional solvent extraction methods and analyzing the compounds by HPLC. The stems, needles and seeds (for excision of embryos and endosperms) derived from mature trees of Taxus baccata ssp. Wallichiana Zucc. Pilg., Himalayan Yew were first washed in soap water for five min. followed by 95% ethanol treatment for one min. The alcohol was washed off with four washes of double distilled water. Surface sterilization was done with 0.1% HgCl2 for 10 min. under vacuum followed by six washes with sterile distilled water. Following this, the explants were inoculated aseptically in pre-sterilized plastic dishes (55-mm diameter) containing the medium of the present invention.
The culture medium and method described in the present invention was tested on ex-plants of a number of matures trees (80-100 year old) collected from the Himalayas. The present protocol is applicable to all the ex-plants derived from all these trees of varying ages and genotypes. A series of callus lines were initiated and currently various callus lines of different ages produce the desirable taxanes. A number of callus lines of different ages and derived from diverse parent trees were analyzed by HPLC for detection of taxane class of molecules. […] For each of the callus lines, extractions were performed at least on three different occasions and duplicate HPLC injections were made on separate days to check for the reproducibility of the results.

[3] = test system: ex-plants of Taxus baccata ssp. Wallichiana Zucc. Pilg.; test: Callus induction from ex-plants of mature trees; details: with or without antioxidants
Source text: as §1

With `Nc1c(Cl)c(Cl)nc(C(=O)O)c1Cl` [Picloram] the “enhanced growth rate of callus tissues” value [1] was 1.5-2.0 times, the “taxol content of callus” value ([2]; 0.5-2 mg.l^-1 picloram, callus lines derived from needles of tree nos. 2, 6 and 7) was 190-300 μg taxol/g dry weight and the “increase of taxol content in vitro than in vivo material” value ([2]; 0.5-2 mg.l^-1 picloram, needles 0.934 μg taxol/g dry weight) was 203 to 321 times. For the same molecule, the “increase of taxol content compared to the in vivo material” value ([2]; 4-6 mg.l^-1 picloram, callus line 6, needles 0.0941 μg taxol/g dry weight) was 5300-6200 times, the “taxol content of callus” value ([2]; 4-6 mg.l^-1 picloram, callus line 6 derived from needles) was 500-590 μg taxol/g dry weight and the “enhanced Taxane production” value ([2]; calli grown in Picloram supplemented media, compared to media supplemented with other auxins) was 2.0-5.4 times. For the same molecule, the “Taxol production relative to in vivo needle tissues” value ([2]; highest producer callus) was about 5000 times, the “Callus formation observed in ex-plants” value ([3]; 0.5-2 mg.l^-1 picloram, tree nos. 2, 6 and 7) was 90% and the “Callus formation observed in ex-plants” value ([3]; 4-6 mg.l^-1 picloram, tree nos. 1, 3 and 4) was 90%.
